In US8993552B2, “Compositions and methods for treatment of leukemia” (The Regents of The University of Michigan, priority 2009, dated 2015):

Assays:
menin-MLL interaction [1] = target: T1, menin-MLL interaction (Homo sapiens (Human), UniProt O00255); assay: HTRF (TR-FRET) assay, His-tagged menin and biotinylated MLL peptide; assay type: binding
menin-MLL interaction [2] = target: T1, menin-MLL interaction; assay: Fluorescence polarization (FP) competition assay with fluorescein-labeled MLL peptide; assay type: binding;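 also: Read-out is fluorescence anisotropy of fluorescein-labeled MLL peptide bound to menin, inhibitors displace the peptide and lower anisotropy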
menin = menin (Homo sapiens (Human), UniProt O00255); assay: NMR STD / competition STD binding experiments; settings: 2.5 μM menin
menin, sequence (O00255 whole entry): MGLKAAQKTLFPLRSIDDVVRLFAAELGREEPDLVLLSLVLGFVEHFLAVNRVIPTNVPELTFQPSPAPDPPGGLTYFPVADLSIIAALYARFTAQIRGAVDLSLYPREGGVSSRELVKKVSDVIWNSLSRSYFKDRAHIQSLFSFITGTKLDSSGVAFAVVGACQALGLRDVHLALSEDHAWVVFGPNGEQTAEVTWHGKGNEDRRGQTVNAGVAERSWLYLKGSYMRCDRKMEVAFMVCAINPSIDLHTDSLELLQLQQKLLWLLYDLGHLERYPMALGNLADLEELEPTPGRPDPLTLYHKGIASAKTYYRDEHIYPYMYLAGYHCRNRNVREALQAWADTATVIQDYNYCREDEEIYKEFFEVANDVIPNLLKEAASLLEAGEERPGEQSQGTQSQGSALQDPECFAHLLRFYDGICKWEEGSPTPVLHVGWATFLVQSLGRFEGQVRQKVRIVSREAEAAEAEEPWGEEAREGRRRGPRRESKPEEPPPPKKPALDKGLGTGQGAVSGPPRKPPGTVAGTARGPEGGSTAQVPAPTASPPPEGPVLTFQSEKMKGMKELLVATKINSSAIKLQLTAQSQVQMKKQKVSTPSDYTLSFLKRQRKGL

Hep-G2 (liver) cell line = assay: MTT viability assay, liver cell line
HK-2 (kidney) cell line = assay: MTT viability assay, kidney cell line
[3] = system: non-MLL leukemia cell lines (Kasumi-1, ME-1); assay: MTT viability assay in non-MLL leukemia cell lines; assay type: cell-based, human; settings: Kasumi-1 (AML1-ETO), ME-1 (CBFβ-SMMHC)
[4] = system: Hoxa9 and Meis1 expression; assay: qRT-PCR of MLL downstream targets in THP-1 cells
[5] = system: human leukemia cell lines with MLL translocations (MV4;11, KOPN-8, THP-1, MonoMac6); assay: MTT viability assay in MLL leukemia cell lines; assay type: cell-based; settings: in words
[6] = Table 1, NA = no activity, NS = no saturation on titration curve, read-out: IC50 in FP assay with FLSN-MLL
[7] = Table 1, NA = no activity, NS = no saturation on titration curve
[8] = Table 3, NA = no activity, read-out: IC50 in FP assay with FLSN-MLL
[9] = FP competition, read-out: IC50 for inhibition of the menin-MLL interaction
[10] = Table 4, NA = no activity, NS not defined in this table, read-out: IC50 in FP assay with FLSN-MLL
[11] = Table 2, FP assay, read-out: IC50

T1 sequence (O00255 whole entry): as above

## CCc1cc2c(N3CCN(Cc4ccccc4)CC3)ncnc2s1 [Compound 2]
menin-MLL interaction [1]; Table 1
  IC50: 85 µM
menin-MLL interaction [2]; [6]
  IC50: 42 µM

## c1cn(CCCNc2ncnc3sc4c(c23)CCCCC4)cn1 [Compound 3]
menin-MLL interaction [1]; Table 1
  IC50: 35 µM
menin-MLL interaction [2]; [6]
  IC50: 83 µM

## CCc1cc2c(N3CCN(C)CC3)ncnc2s1 [Compound 7]
menin-MLL interaction [2]
  IC50: 170 µM

## CCc1cc2c(N3CCN(c4ccccn4)CC3)ncnc2s1 [Compound 8]
menin-MLL interaction [2]; [6]
  IC50: 60 µM

## CCc1cc2c(N3CCN(c4ncccn4)CC3)ncnc2s1 [Compound 10]
menin-MLL interaction [2]; [6]
  IC50: 250 µM

## CN1CCN(c2ncnc3oc(-c4ccccc4)c(-c4ccccc4)c23)CC1 [Compound 11]
menin-MLL interaction [2]; [6]
  IC50: 500 µM

## CCOC(=O)c1sc2nc(CN3CCOCC3)nc(N3CCN(c4nccs4)CC3)c2c1C [Compound 12]
menin-MLL interaction [2]; [7]
  IC50 in FP assay with FLSN-MLL: NA up to 100 μM

## Cc1csc(N2CCN(c3nc(CN4CCOCC4)nc4sc5c(c34)CCC(C)C5)CC2)n1 (stereo not drawn) [Compound 14]
menin-MLL interaction [2]; [6]
  IC50: 250 µM

## Cc1csc(N2CCN(c3nc(C)nc4sc5c(c34)CCCC5)CC2)n1 [Compound 15]
menin-MLL interaction [2]; [6]
  IC50: 49 µM

## Cc1c(-c2ccccc2)sc2ncnc(N3CCN(c4nccs4)CC3)c12 [Compound 16]
menin-MLL interaction [2]; [6]
  IC50: 71 µM

## CCN(CC)Cc1nc(N2CCN(c3nccs3)CC2)c2c(C)c(C)sc2n1 [Compound 17]
menin-MLL interaction [2]; [7]
  IC50 in FP assay with FLSN-MLL: NA up to 250 uM

## Fc1ccc(-c2csc3ncnc(N4CCN(c5nccs5)CC4)c23)cc1 [Compound 20]
menin-MLL interaction [2]; [6]
  IC50: 125 µM

## c1ccc(-c2cc3c(N4CCN(c5nccs5)CC4)ncnc3s2)cc1 [Compound 21]
menin-MLL interaction [2]; [6]
  IC50: 50 µM

## c1cnc(N2CCN(c3ncnc4sccc34)CC2)nc1 [Compound 24]
menin-MLL interaction [2]; [7]
  IC50 in FP assay with FLSN-MLL: NA up to 1 mM

## CN1CCCN(c2ncnc3sccc23)CC1 [Compound 27]
menin-MLL interaction [2]; [6]
  IC50: 350 µM

## Cc1cc2c(N3CCN(c4ccccc4)CC3)ncnc2s1 [Compound 29]
menin-MLL interaction [2]; [7]
  IC50 in FP assay with FLSN-MLL: NA up to 250 μM

## c1csc(N2CCN(c3ncnc4sccc34)CC2)n1 [Compound 31]
menin-MLL interaction [2]; [6]
  IC50: 29.5 µM

## CC(=O)N1c2ccccc2NC2=C(C(=O)CC(c3ccc(C(C)(C)C)cc3)C2)C1c1ccncc1 (stereo not drawn) [Compound 33]
menin
  binding to menin by NMR (STD, competition STD with MLL peptide): specific binding
Hep-G2 (liver) cell line
  toxicity in viability assay: no substantial signs of toxicity
menin-MLL interaction [1]; Table 3
  IC50: 28 µM
HK-2 (kidney) cell line
  toxicity in viability assay: no substantial signs of toxicity
menin-MLL interaction [2]; [8]
  IC50: 29 µM

## CC1(C)CC(=O)C2=C(C1)Nc1ccccc1NC2c1ccc2c(c1)OCO2 (stereo not drawn) [Compound 34]
menin-MLL interaction [2]; [8]
  IC50: 12 µM

## COc1cc(C2Nc3ccccc3NC3=C2C(=O)CC(C)(C)C3)cc(OC)c1OC (stereo not drawn) [Compound 35]
menin-MLL interaction [2]; [8]
  IC50: 35 µM

## O=C1CC(c2ccc3c(c2)OCO3)CC2=C1C(c1cccnc1)Nc1ccccc1N2 (stereo not drawn) [Compound 36]
menin-MLL interaction [2]; [8]
  IC50: 63 µM

## COc1ccc(C2CC(=O)C3=C(C2)Nc2ccccc2NC3c2cccnc2)cc1OC (stereo not drawn) [Compound 37]
menin-MLL interaction [2]; [8]
  IC50: 100 µM

## COc1ccc(C2CC(=O)C3=C(C2)Nc2ccccc2NC3c2ccccc2C)cc1OC (stereo not drawn) [Compound 38]
menin-MLL interaction [2]; [8]
  IC50: 115 µM

## Nc1cccc(-c2cccnc2)c1 [Compound 42]
menin
  binding to menin by NMR (STD, competition STD with MLL peptide): Binding to menin was confirmed
menin-MLL interaction [2]; [9]
  IC50: 50 µM
menin-MLL interaction [2]; [10]
  IC50: 50 µM

## NC(=O)Cc1nc(-c2ccc(F)cc2)cs1 [Compound 43]
menin
  binding to menin by NMR (STD, competition STD with MLL peptide): Binding to menin was confirmed
menin-MLL interaction [1]; Table 4
  IC50: 200 µM
menin-MLL interaction [2]; [10]
  IC50: 230 µM

## Cc1nn(-c2ccccc2)nc1C(N)=O [Compound 44]
menin
  binding to menin by NMR (STD, competition STD with MLL peptide): Binding to menin was confirmed
menin-MLL interaction [2]; [10]
  IC50: 380 µM

## OCc1ccc(-c2ccncc2)cc1 [Compound 45]
menin
  binding to menin by NMR (STD, competition STD with MLL peptide): Binding to menin was confirmed
menin-MLL interaction [2]; [10]
  IC50: 510 µM

## NC(=O)Cc1nc(-c2ccccc2)cs1 [Compound 46]
menin-MLL interaction [2]; [10]
  IC50: 2000 µM

## COc1ccc(-c2csc(CC(N)=O)n2)cc1 [Compound 47]
menin-MLL interaction [1]; Table 4
  IC50: 33 µM
menin-MLL interaction [2]; [10]
  IC50: 67 µM
menin-MLL interaction [2]; inhibition of the menin-MLL interaction
  potency relative to the original hit (6G10): about 4 fold

## O=C(Cc1nc(-c2ccccc2)cs1)Nc1ccccc1 [Compound 48]
menin-MLL interaction [2]; Table 4, at 0.5 mM
  D in FP assay: 30%

## NC(=O)Cc1nc(-c2ccc(Br)cc2)cs1 [Compound 49]
menin-MLL interaction [2]; Table 4, at 1.0 mM
  D in FP assay: 10%

## Cc1ccccc1NC(=O)Cc1nc(-c2ccc(F)cc2)cs1 [Compound 50]
menin-MLL interaction [2]; [10]
  IC50: 122 µM

## COC(=O)Cc1nc(C2CCCCC2)cs1 [Compound 51]
menin-MLL interaction [2]; [10]
  IC50: 1900 µM

## O=C(Cc1nc(-c2ccc(F)cc2)cs1)N1CCOCC1 [Compound 52]
menin-MLL interaction [2]; [10]
  IC50: 107 µM

## O=C(Cc1nc(-c2ccc(Cl)cc2)cs1)NCc1ccccc1 [Compound 53]
menin-MLL interaction [2]; [10]
  IC50: 1060 µM

## NC(=O)Cc1nc(-c2cccc(Cl)c2)cs1 [Compound 54]
menin-MLL interaction [2]; [10]
  IC50: 137 µM

## Cc1ccc(-c2csc(CC(N)=O)n2)cc1C [Compound 56]
menin-MLL interaction [2]; Table 4, at 0.5 mM
  D in FP assay: 30%

## Cc1cc(C)c(-c2csc(CC(N)=O)n2)cc1C [Compound 57]
menin-MLL interaction [2]; [10]
  IC50: 1200 µM

## COc1ccc(-c2csc(CC(N)=O)n2)cc1Br [Compound 58]
menin-MLL interaction [2]; [10]
  IC50: 80 µM

## CCCC(=O)Nc1ccc(-c2nc(CC(N)=O)sc2C)cc1 [Compound 59]
menin-MLL interaction [2]; [10]
  IC50: 830 µM

## CCc1cc2c(N3CCN(Cc4ccc(Cl)cc4)CC3)ncnc2s1 [Compound 60]
menin-MLL interaction [2]; [11]
  IC50: 30 µM

## CCc1cc2c(N3CCN(CC(=O)N4CCOCC4)CC3)ncnc2s1 [Compound 61]
menin-MLL interaction [2]; [11]
  IC50: 20 µM

## CCc1cc2c(N3CCN(C(=O)c4ccccc4)CC3)ncnc2s1 [Compound 62]
menin-MLL interaction [2]; [11]
  IC50: 10 µM

## CCc1cc2c(N3CCN(C(=O)c4ccco4)CC3)ncnc2s1 [Compound 63]
[3]
  effect on growth of non-MLL leukemia cell lines: No or very limited effect
[4]
  expression level of Hoxa9 and Meis1: Downregulation
menin-MLL interaction [2]; [11]
  IC50: 12 µM

## CCc1cc2c(N3CCN(c4nnc(C(F)(F)F)s4)CC3)ncnc2s1.Cl [Compound 66]
menin-MLL interaction [2]; [11]
  IC50: 1.1 µM
menin-MLL interaction [2]; in words
  in vitro activity in FP assay relative to parent Compound 1: more potent activity

## CC(C)c1cc2c(N3CCN(c4nnc(C(F)(F)F)s4)CC3)ncnc2s1 [Compound 68]
menin-MLL interaction [2]; [11]
  IC50: 2.4 µM

## CCc1cc2c(N3CCN(CC(=O)N4CCN(C)CC4)CC3)ncnc2s1 [Compound 69]
menin-MLL interaction [2]; [11]
  IC50: 16 µM

## CC1(C)CN=C(N2CCN(c3ncnc4sc(Cc5ccccc5)cc34)CC2)S1 [Compound 71]
menin-MLL interaction [2]; [11]
  IC50: 4.6 µM

## CC1(C)CN=C(N2CCN(c3ncnc4sc(Br)cc34)CC2)S1 [Compound 72]
menin-MLL interaction [2]; [11]
  IC50: 4.8 µM

## COc1ccc(CN2CCCN(c3ncnc4sc(C)c(C)c34)CC2)cc1 [Compound 73]
menin-MLL interaction [2]; [11]
  IC50: 20 µM

## CCc1cc2c(N3CCCN(CC(=O)N4CCCC4)CC3)ncnc2s1 [Compound 74]
menin-MLL interaction [2]; [11]
  IC50: 7 µM

## CC(C)c1cc2c(N3CCCN(C4=NCC(C)(C)S4)CC3)ncnc2s1 [Compound 75]
menin-MLL interaction [2]; [11]
  IC50: 32 µM

## CCc1cc2c(N3CCCN(C4=NCC(C)(C)S4)CC3)ncnc2s1 [Compound 76]
menin-MLL interaction [2]; [11]
  IC50: 6.3 µM

## Cc1sc2ncnc(NC3CCN(Cc4ccccc4)CC3)c2c1C [Compound 77]
menin-MLL interaction [2]; [11]
  IC50: 8.7 µM

## c1ccc(CN2CCC(Nc3ncnc4sc5c(c34)CCC5)CC2)cc1 [Compound 78]
menin-MLL interaction [2]; [11]
  IC50: 12 µM

## CC1CCc2c(sc3ncnc(NC4CCN(Cc5ccccc5)CC4)c23)C1 (stereo not drawn) [Compound 79]
menin-MLL interaction [2]; [11]
  IC50: 20 µM

## CCc1cc2c(NC3CCN(Cc4ccccc4)CC3)ncnc2s1 [Compound 80]
menin-MLL interaction [2]; [11]
  IC50: 1.3 µM

## CCc1cc2c(NCC3CCN(Cc4cccc(C)c4)CC3)ncnc2s1 [Compound 81]
menin-MLL interaction [2]; [11]
  IC50: 40 µM

## CCc1cc2c(NCC3CCN(Cc4ccc(F)cc4)CC3)ncnc2s1 [Compound 82]
menin-MLL interaction [2]; [11]
  IC50: 4.4 µM

## CCc1cc2c(NCCN(CC)Cc3ccccc3)ncnc2s1 [Compound 83]
menin-MLL interaction [2]; [11]
  IC50: 27 µM

## CC(=O)N1c2ccccc2NC2=C(C(=O)CC(c3ccc(C)cc3)C2)C1c1cccnc1 (stereo not drawn) [Compound 84]
menin-MLL interaction [2]; [8]
  IC50: 100 µM

## COc1ccc(C2CC(=O)C3=C(C2)Nc2ccccc2N(C(C)=O)C3c2cccnc2)cc1 (stereo not drawn) [Compound 85]
menin-MLL interaction [2]; [8]
  IC50: 72 µM

## CC(=O)N1c2ccccc2NC2=C(C(=O)CC(c3ccc(Cl)c(Cl)c3)C2)C1c1cccnc1 (stereo not drawn) [Compound 86]
[3]
  effect on growth of non-MLL leukemia cell lines: no or very limited effect on cell growth
[4]
  expression level of Hoxa9 and Meis1: Downregulation of Hoxa9 and Meis1 expression
[5]
  growth inhibition of MLL leukemia cells: strongly inhibited growth
menin-MLL interaction [2]; [9]
  IC50: 7.4 µM
menin-MLL interaction [2]; [8]
  IC50: 7.4 µM
